According to ChEMBL document CHEMBL1201862, “PubChem BioAssay data set” (2004):
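Interpolation was linear, between the two tested concentrations surrounding the appropriate level; five concentrations were tested over 48 hours in 96-well plates. At the GI50, growth is halved.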 Activity calls are given as the source filed them. No stated cut-off is given here; in the data, active = GI50 up to about 1.1 µM and inactive = higher.

Experiments:
Assay in all cases: DTP human tumour cell line panel, 48 h
[1] = tested on: SK-MEL-28
[2] = tested on: MOLT-4
[3] = tested on: ACHN
[4] = tested on: EKVX
[5] = tested on: HL-60
[6] = tested on: UACC-257
[7] = tested on: CAKI-1
[8] = tested on: NCI-H460
[9] = tested on: HCT-116
[10] = tested on: HOP-62
[11] = tested on: SF-539
[12] = tested on: SN12C
[13] = tested on: HCC 2998
[14] = tested on: HCT-15
[15] = tested on: RPMI-8226

Structure (SMILES)	GI50 [1]	GI50 [2]	GI50 [3]	GI50 [4]	GI50 [5]	GI50 [6]	GI50 [7]	GI50 [8]	GI50 [9]	GI50 [10]	GI50 [11]	GI50 [12]	GI50 [13]	GI50 [14] [µM]	GI50 [15]
Cc1ccc(C)c(NC(=O)CC/C(=N\NC(=O)C(N)=O)C(C)C(=O)c2ccc(O)cc2)c1 (stereo not drawn)	> 100 µM (inactive)	> 100 µM (inactive)	> 100 µM (inactive)	> 100 µM (inactive)	> 100 µM (inactive)	> 100 µM (inactive)	> 100 µM (inactive)	> 100 µM (inactive)	> 100 µM (inactive)	> 100 µM (inactive)	> 100 µM (inactive)	> 100 µM (inactive)	> 100 µM (inactive)	> 100	–
C=C(C)CCOC(c1ccccc1)(c1ccccc1)c1ccccc1	42.7 µM (inactive)	51.3 µM (inactive)	25.7 µM (inactive)	–	31.5 µM (inactive)	25.4 µM (inactive)	70.6 µM (inactive)	29.1 µM (inactive)	18.7 µM (inactive)	70.5 µM (inactive)	91 µM (inactive)	69 µM (inactive)	25.6 µM (inactive)	47.3	33.9 µM (inactive)
CN(C)c1ccc(/C=C2\Cc3ccccc3C2=O)cc1Br	39 µM (inactive)	28.5 µM (inactive)	45.8 µM (inactive)	76.6 µM (inactive)	–	44.8 µM (inactive)	64.1 µM (inactive)	53.6 µM (inactive)	–	> 100 µM (inactive)	–	51.5 µM (inactive)	> 100 µM (inactive)	35.7	24.1 µM (inactive)
N#C/C(=C1\OC(=N)C(c2ccc(Cl)cc2)=C1O)c1ccc(Cl)cc1	26.5 µM (inactive)	17.3 µM (inactive)	17.6 µM (inactive)	17.7 µM (inactive)	13.3 µM (inactive)	15 µM (inactive)	17.3 µM (inactive)	17.3 µM (inactive)	17.3 µM (inactive)	19.1 µM (inactive)	14.5 µM (inactive)	11 µM (inactive)	17.1 µM (inactive)	–	19 µM (inactive)
COC(=O)OCC1OC(N2C(=O)NC(=O)C(Br)C2N=[N+]=[N-])CC1OC(=O)OC (stereo not drawn)	> 100 µM (inactive)	–	> 100 µM (inactive)	–	–	> 100 µM (inactive)	> 100 µM (inactive)	> 100 µM (inactive)	> 100 µM (inactive)	> 100 µM (inactive)	> 100 µM (inactive)	> 100 µM (inactive)	> 100 µM (inactive)	> 100	> 100 µM (inactive)
COc1ccc2c(c1)[n+]([O-])c(C(=O)C/C(=N/NC(=O)C[N+](C)(C)C)C(=O)Nc1cccc(C)c1C)c(C)[n+]2[O-]	> 100 µM (inactive)	–	> 100 µM (inactive)	> 100 µM (inactive)	–	28.6 µM (inactive)	> 100 µM (inactive)	> 100 µM (inactive)	> 100 µM (inactive)	> 100 µM (inactive)	> 100 µM (inactive)	> 100 µM (inactive)	> 100 µM (inactive)	> 100	> 100 µM (inactive)
C=CC[C@H]1C[C@@]2(C)OC[C@H](C(C)C)N2C1=O	> 100 µM (inactive)	–	> 100 µM (inactive)	> 100 µM (inactive)	–	> 100 µM (inactive)	> 100 µM (inactive)	> 100 µM (inactive)	> 100 µM (inactive)	> 100 µM (inactive)	> 100 µM (inactive)	> 100 µM (inactive)	–	> 100	> 100 µM (inactive)
Cn1c(=O)c2c(ncn2CCCCn2ccnc2[N+](=O)[O-])n(C)c1=O	> 100 µM (inactive)	> 100 µM (inactive)	> 100 µM (inactive)	> 100 µM (inactive)	> 100 µM (inactive)	–	–	> 100 µM (inactive)	> 100 µM (inactive)	> 100 µM (inactive)	> 100 µM (inactive)	> 100 µM (inactive)	–	> 100	> 100 µM (inactive)
C=CC(=O)NCCSCCCOC1(C(=O)O)CC(O)C(NC(C)=O)C(C(O)C(O)CO)O1 (stereo not drawn)	> 100 µM (inactive)	> 100 µM (inactive)	> 100 µM (inactive)	–	> 100 µM (inactive)	> 100 µM (inactive)	–	> 100 µM (inactive)	> 100 µM (inactive)	–	> 100 µM (inactive)	> 100 µM (inactive)	> 100 µM (inactive)	> 100	> 100 µM (inactive)
CC(=O)OC[C@]1(O)CC[C@@]23CC1C[C@@H]2CCC1C(C)(C)CCC[C@@]13C (stereo partly drawn)	14.8 µM (inactive)	1.77 µM (inactive)	15.7 µM (inactive)	–	4.95 µM (inactive)	15.8 µM (inactive)	18.2 µM (inactive)	14.7 µM (inactive)	11.9 µM (inactive)	17.4 µM (inactive)	16.4 µM (inactive)	12.2 µM (inactive)	17.4 µM (inactive)	15.8	9.23 µM (inactive)
COC(=O)C1[C@@H](C(=O)OC)C(=O)O[C@H]1c1cc(OC)c(OC)c(OC)c1 (stereo partly drawn)	> 100 µM (inactive)	> 100 µM (inactive)	> 100 µM (inactive)	–	> 100 µM (inactive)	> 100 µM (inactive)	> 100 µM (inactive)	> 100 µM (inactive)	> 100 µM (inactive)	> 100 µM (inactive)	> 100 µM (inactive)	> 100 µM (inactive)	> 100 µM (inactive)	> 100	> 100 µM (inactive)
